Eight molecules from ChEMBL document CHEMBL1148627, “Design and synthesis of heterocyclic malonyl-CoA decarboxylase inhibitors” (Bioorg Med Chem Lett, 2006) can be followed below.

The assay deals with T1, Malonyl-CoA decarboxylase, mitochondrial (Homo sapiens, UniProt O95822).
T1 sequence (O95822 whole entry): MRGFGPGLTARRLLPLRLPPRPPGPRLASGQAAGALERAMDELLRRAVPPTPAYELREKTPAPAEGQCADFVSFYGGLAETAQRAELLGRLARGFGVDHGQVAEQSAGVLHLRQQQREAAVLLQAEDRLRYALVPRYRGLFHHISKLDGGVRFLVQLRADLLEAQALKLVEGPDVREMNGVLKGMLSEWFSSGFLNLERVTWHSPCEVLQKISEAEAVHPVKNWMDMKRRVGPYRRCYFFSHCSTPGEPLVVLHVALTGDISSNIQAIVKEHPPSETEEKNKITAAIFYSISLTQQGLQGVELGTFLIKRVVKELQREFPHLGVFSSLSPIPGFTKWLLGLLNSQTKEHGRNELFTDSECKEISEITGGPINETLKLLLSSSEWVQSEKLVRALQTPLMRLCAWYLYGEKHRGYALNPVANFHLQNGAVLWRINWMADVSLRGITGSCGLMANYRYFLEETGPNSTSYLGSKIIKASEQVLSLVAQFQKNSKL
The experiment in a line: Inhibitory activity against recombinant human MCD MBP fusion protein.
Consider `CCC(C)c1ncc(/C=C/C(=O)O)n1-c1ccc(C(O)(C(F)(F)F)C(F)(F)F)cc1` (stereo not drawn), for which the IC50 – broadly, the concentration that inhibits the measured activity by half – worked out at 523 nM.

As for `CC(C)NC(=O)CCC1CN(Cc2cnc(C(C)C)n2-c2ccc(C(O)(C(F)(F)F)C(F)(F)F)cc2)CCO1` (stereo not drawn), the IC50 was determined as 1080 nM.

`CCC(C)c1ncc(CNC(C)C)n1-c1ccc(C(O)(C(F)(F)F)C(F)(F)F)cc1` (stereo not drawn): the IC50 turned out to be 341 nM.

With `CC(C)c1nc(C(F)(F)F)cn1-c1ccc(C(O)(C(F)(F)F)C(F)(F)F)cc1`, the concentration for half-maximal inhibition (IC50) is 567 nM.

Regarding `CCCCNCc1cnc(C(C)C)n1-c1ccc(C(O)(C(F)(F)F)C(F)(F)F)cc1`, the IC50 is 482 nM.

Turning to `CC(C)c1nc(CO)cn1-c1ccc(C(O)(C(F)(F)F)C(F)(F)F)cc1`, the IC50 was determined as 243 nM.

Turning to `CCC(C)c1ncc(CO)n1-c1ccc(C(O)(C(F)(F)F)C(F)(F)F)cc1` (stereo not drawn), the half-maximal inhibitory concentration (IC50) amounted to 321 nM.

Turning to `OCc1cnc(-c2ccccn2)n1-c1ccc(C(O)(C(F)(F)F)C(F)(F)F)cc1`, the IC50 is 791 nM.
